Experimental data as given in US6900239B2, “Tumor chemopotentiation using isocoumarin derivatives” (ILWZ ILEX Products, Inc., priority 2000, dated 2005).

Legend:
[1] = system: MDAMB-435 human breast tumor xenografts; assay: MDAMB-435 orthotopic model, NM-3 with 5-Fluorouracil; assay type: in vivo, female NCRNU nude mice; details: 5-FU 10 mpk q14d; 0,14 alone
Experimental: In order to evaluate the antitumor activity of NM-3 in combination with 5-Fluorouracil (5-FU) vs. MDAMB-435 human breast tumor xenografts, female NCRNU nude mice were implanted with MDAMB-435 cells into the subaxillary mammary fat pad. When the tumors were between 50 and 80 mm^3, NM-3 was administered via intraperitoneal (i.p.) injection daily at 10 and 100 mg/kg; 5-FU was administered via i.p. injection on days 0 and 14, at 10 mg/kg. Mice were weighed twice weekly, and tumor measurements were taken by calipers twice weekly. Mice were euthenized at the end of the treatment period. Upon termination, the mice were weighed, sacrificed and their tumors were excised.
Initial studies were conducted with 5-FU to determine the optimal dose of this agent when administered in combination with NM-3.

colon 26 adenocarcinoma = assay: Combination with cyclophosphamide, survival; assay type: in vivo, BALB/c mice; details: Cyclophosphamide 300 mg/kg i.v. day 14 alone
Experimental: To determine the effect on tumor growth of NM-3 treatment combined with simultaneous cyclophosphamide treatment, colon 26 adenocarcinoma cells (5×10^4 cells per mouse) were subcutaneously transplanted into BALB/c mice (female, 7 weeks old) in the inguinal area. NM-3 was continuously orally administered from day 1 to day 72 after the transplantation except on day 14 when cyclophosphamide was dosed.

IMC carcinoma = assay: Combination with cyclophosphamide, tumor weight; assay type: in vivo, CDF1 mice; details: Cyclophosphamide 300 mg/kg i.v. day 14 alone
Experimental: To determine the effect on IMC carcinoma growth of NM-3 treatment combined with simultaneous cyclophosphamide treatment, IMC carcinoma cells (1×10^6 cells per mouse) were subcutaneously transplanted into CDF1 mice (female, 10 weeks old) in the inguinal area. NM-3 which was dissolved using 5% DMSO+Tween80, was continuously orally administered from day 1 to day 41 after transplantation except on day 14, when cyclophosphamide (300 mg/kg) was injected intravenously.

[2] = system: transplantable mouse solid tumors; details: oral administration; cited from earlier work
cultured tumor cells = details: cited from earlier work
[3] = mice and dogs; cited from earlier work
[4] = in vivo; cited from earlier work
[5] = system: MDAMB-435 human breast tumor xenografts; assay: MDAMB-435 orthotopic model, NM-3 with paclitaxel, first study; assay type: in vivo, female NCRNU nude mice; details: for % Tumor Growth Inhibition: Taxol 10 mg/kg q7d i.p. alone
Excerpt: In order to determine the effect of the combination of NM-3 with the cytotoxic drug, paclitaxel on human breast tumor xenografts, female NCRNU nude mice were implanted with MDAMB-435 cells into the subaxillary mammary fat pad. […]

[6] = system: MDAMB-435 human breast tumor xenografts; assay: MDAMB-435 orthotopic model, NM-3 with paclitaxel, second study (100 mm^3) and delivery routes; assay type: in vivo, female NCRNU nude mice; details: Taxol 12.5 mg/kg q7d alone
Experimental: In order to determine the effect of the combination of NM-3 with the cytotoxic drug, paclitaxel on human breast tumor xenografts, female NCRNU nude mice were implanted with MDAMB-435 cells into the subaxillary mammary fat pad. NM-3 was administered via intraperitoneal (i.p.) injection daily at doses ranging from 10-100 mg/kg; paclitaxel was administered via i.p. injection every 7 days, starting on day 0, at 10 mg/kg.
In a second study, treatment was initiated when tumor volumes reached 100 mm^3. Paclitaxel was administered at the fixed dose of 12.5 mg/kg, q7d and NM-3 was dosed at 10 and 100 mg/kg, i.p. daily for 28 days.
A comparison was also made between different delivery routes of NM-3 in the combination studies. NM-3 given i.p. daily, bid, and continuously using Alzet mini osmotic pumps in combination with paclitaxel was evaluated for effectiveness in reducing tumor growth.

[7] = system: Human umbilical vein endothelial cells (HUVEC); assay: HUVEC colony formation with a constant amount of gamma radiation; assay type: cell-based
Experimental: Human umbilical vein endothelial cells (HUVEC) were exposed to a constant amount of gamma radiation in the presence or absence of various concentrations of NM-3 in the culture medium. The numbers of HUVEC colonies that formed following the different treatments were recorded and normalized to the number of colonies formed under control (no NM-3) conditions and the results are shown in FIG. 1. […] For comparison, HUVEC cells were treated with either angiostatin or endostatin, two additional anti-angiogenic proteins.

[8] = system: Lewis Lung carcinoma (LLC) tumors; assay: Radiation sensitivity of Lewis Lung carcinoma in vivo; parameters: species or system C57BL/6 female mice; details: combined with X-ray treatment
Experimental: To determine whether NM-3 treatment increases the radiation sensitivity of tumors in vivo, Lewis Lung carcinoma (LLC) tumors were established in C57BL/6 female mice (Frederick Cancer Research Institute) prior to NM-3 and radiation treatment. LLC cells (1×10^6 cells) were injected in the right hind limb of the mice and tumors were allowed to grow a volume of 250-350 mm^3. Tumor volumes were determined by direct measurements with calipers calculated by the formula: V=length×width×depth/2. Mice were then divided into groups and treated with NM-3 (100 mg/kg total) or PBS for two days before beginning radiation therapy. Animals then received NM-3 (25 mg/kg/day, i.p.) or PBS approximately four hours prior to radiation treatment. Tumors were irradiated using a GE Maxitron X-ray generator operating at 150 kV, 30 mA, using a 1 mm aluminum filter at a dose rate of 188 cGy/minute. Mice were shielded with lead except for the tumor-bearing area in the hind limb. Treatments and tumor measurements continued for a period of 17 days (see FIG. 4). […] Whereas control tumors reached 8 initial tumor volumes (Vo) after 8 days, X-ray treated tumors required 16 days to grow to this size. […] For comparison, data are plotted with two additional anti-angiogenic drugs, antiostatin and endostatin (see FIGS. 3B and 3C).

## O=c1[nH]cc(F)c(=O)[nH]1 [5-FU, 5-Fluorouracil, reference compound]
[1]
  Final Tumor Wt. (mg) +/− SEM: 259.6 ± 36.22 mg

## O=P1(N(CCCl)CCCl)NCCCO1 (stereo not shown) [Cyclophosphamide, reference compound]
Colon 26 adenocarcinoma
  Mean Survival Days (days ± S.D.): 47.9 ± 13.9 days
  T/C (%): 145.1%
Colon 26 adenocarcinoma; listed as cyclophosphamide
  T/C (%): 145%
IMC carcinoma
  Inhibition (%): 70.7%
IMC carcinoma; day 42
  Solid Weight mg ± S.D.: 3620.4 ± 1406.3 mg

## COc1cc(O)c2c(=O)oc(CO)cc2c1 [Cytogenin, 3-hydroxymethyl-6-methoxy-8-hydroxy-1H-2-benzopyran-1-one]
[2]
  Antitumor activity: demonstrated antitumor activities
Cultured tumor cells
  Anti-proliferation inhibitory activity: very low anti-proliferation inhibitory activity
[3]
  Toxicity: low toxicity
[4]
  Stability: in vivo instability

## CC(=O)O[C@H]1C(=O)[C@@]2(C)[C@H]([C@H](OC(=O)c3ccccc3)[C@]3(O)C[C@H](OC(=O)[C@H](O)[C@@H](NC(=O)c4ccccc4)c4ccccc4)C(C)=C1C3(C)C)[C@]1(OC(C)=O)CO[C@@H]1C[C@@H]2O [Taxol, paclitaxel]
[5]; Taxol 10 mg/kg q7d alone
  Final Tumor Wt. (mg) +/− SEM: 215.6 ± 19.73 mg
[5]; Taxol 10 mg/kg q7d alone, n 9
  Mice with Complete Shrinkage: 0
[5]; listed as Paclitaxel
  % Tumor Growth Inhibition: no tumor growth inhibition
[5]; listed as paclitaxel
  % Tumor Growth Inhibition: minimal effect
[5]; paclitaxel 20 mg/kg, single agent
  Tumor growth inhibition: significant effect on tumor growth inhibition
[6]
  % Tumor Growth Inhibition: 26.52%
  Final Tumor Ratio (V/Vo) +/− SEM: 4.71 ± 0.76 V/Vo
[6]; n 9
  Mice with Complete Shrinkage: 0

B1: angiostatin: 38-kDa fragment of plasminogen that selectively inhibits proliferation of endothelial cells; anti-angiogenic protein (protein, UniProt P00747 79-466, looked up)
Angiostatin: NRKSSIIIRMRDVVLFEKKVYLSECKTGNGKNYRGTMSKTKNGITCQKWSSTSPHRPRFSPATHPSEGLEENYCRNPDNDPQGPWCYTTDPEKRYDYCDILECEEECMHCSGENYDGKISKTMSGLECQAWDSQSPHAHGYIPSKFPNKNLKKNYCRNPDRELRPWCFTTDPNKRWELCDIPRCTTPPPSSGPTYQCLKGTGENYRGNVAVTVSGHTCQHWSAQTPHTHNRTPENFPCKNLDENYCRNPDGKRAPWCHTTNSQVRWEYCKIPSCDSSPVSTEQLAPTAPPELTPVVQDCYHGDGQSYRGTSSTTTTGKKCQSWSSMTPHRHQKTPENYPNAGLTMNYCRNPDADKGPWCFTTDPSVRWEYCNLKKCSGTEASVVAPPP
modifications: Angiostatin
notes: anti-angiogenic protein
[7]
  Inhibition of HUVEC growth compared with NM-3: Neither angiostatin nor endostatin inhibited HUVEC growth to the extent of NM-3
[8]
  Radiation sensitization of tumors: some radiation sensitization

B2: endostatin: anti-angiogenic protein used for comparison (protein, UniProt P39060 1572-1754, looked up)
Endostatin: HSHRDFQPVLHLVALNSPLSGGMRGIRGADFQCFQQARAVGLAGTFRAFLSSRLQDLYSIVRRADRAAVPIVNLKDELLFPSWEALFSGSEGPLKPGARIFSFDGKDVLRHPTWPQKSVWHGSDPNGRRLTESYCETWRTEAPSATGQASSLLGGRLLGQSAASCHHAYIVLCIENSFMTASK
modifications: Endostatin
notes: anti-angiogenic protein used for comparison
[7]
  Inhibition of HUVEC growth compared with NM-3: Neither angiostatin nor endostatin inhibited HUVEC growth to the extent of NM-3
[8]
  Radiation sensitization of tumors: did not
